Consider one compound from patent US20100292283A1, “NOVEL PHENYL-ACETAMIDE AND PHENYL-PROPIONAMIDE DERIVATIVES USEFUL AS POTASSIUM CHANNEL MODULATORS” (priority 2007, published 2010).

The target of the experiment is T1, BK channels (Homo sapiens, UniProt Q12791).
T1 construct: expressed in transfected cells; host or cells: Xenopus laevis oocytes
As to the kind of experiment: BK channel opening activity, two-electrode voltage clamp in Xenopus oocytes. The settings on record: BK channels heterologously expressed in Xenopus oocytes, 0.01-31.6 μM compound. It counts as cell-based. The procedure:
In this example the BK channel opening activity of Compound 8 is determined using BK channels heterologously expressed in Xenopus iaevis oocytes.
The electrical current through the BK channel was measured using conventional two-electrode voltage clamp. BK currents were activated by repeating ramp protocols. In brief, the membrane potential was continuously changed from −120 mV to +120 mV within a 2 s period. The threshold for BK activation is approximately +30 mV under control conditions. Compounds were applied for 100 s during which the ramp protocol was repeated 10 times with 10 s intervals. In between the ramp protocols the membrane potential was clamped at −80 mV. The first three compound applications were control blanks where the current level is allowed to stabilize. […]
In order to evaluate the ability of the compounds to shift the BK activation curve towards lower membrane potentials, the BK current was transformed into conductance by using Ohm's law g=I/(Ememb−Erev), where g is the conductance, I is the current, Ememb is the membrane potential and Erev is the reversal potential. […] The control conductance level at a membrane potential of +100 mV was calculated, and the compound effect was evaluated as the potential difference, […], to the membrane potential at which the same conductance level was obtained in the presence of compound. […]
(In two-electrode clamp one electrode senses voltage and the other passes current.)

The structures appear in SMILES notation.

T1 sequence (Q12791 whole entry): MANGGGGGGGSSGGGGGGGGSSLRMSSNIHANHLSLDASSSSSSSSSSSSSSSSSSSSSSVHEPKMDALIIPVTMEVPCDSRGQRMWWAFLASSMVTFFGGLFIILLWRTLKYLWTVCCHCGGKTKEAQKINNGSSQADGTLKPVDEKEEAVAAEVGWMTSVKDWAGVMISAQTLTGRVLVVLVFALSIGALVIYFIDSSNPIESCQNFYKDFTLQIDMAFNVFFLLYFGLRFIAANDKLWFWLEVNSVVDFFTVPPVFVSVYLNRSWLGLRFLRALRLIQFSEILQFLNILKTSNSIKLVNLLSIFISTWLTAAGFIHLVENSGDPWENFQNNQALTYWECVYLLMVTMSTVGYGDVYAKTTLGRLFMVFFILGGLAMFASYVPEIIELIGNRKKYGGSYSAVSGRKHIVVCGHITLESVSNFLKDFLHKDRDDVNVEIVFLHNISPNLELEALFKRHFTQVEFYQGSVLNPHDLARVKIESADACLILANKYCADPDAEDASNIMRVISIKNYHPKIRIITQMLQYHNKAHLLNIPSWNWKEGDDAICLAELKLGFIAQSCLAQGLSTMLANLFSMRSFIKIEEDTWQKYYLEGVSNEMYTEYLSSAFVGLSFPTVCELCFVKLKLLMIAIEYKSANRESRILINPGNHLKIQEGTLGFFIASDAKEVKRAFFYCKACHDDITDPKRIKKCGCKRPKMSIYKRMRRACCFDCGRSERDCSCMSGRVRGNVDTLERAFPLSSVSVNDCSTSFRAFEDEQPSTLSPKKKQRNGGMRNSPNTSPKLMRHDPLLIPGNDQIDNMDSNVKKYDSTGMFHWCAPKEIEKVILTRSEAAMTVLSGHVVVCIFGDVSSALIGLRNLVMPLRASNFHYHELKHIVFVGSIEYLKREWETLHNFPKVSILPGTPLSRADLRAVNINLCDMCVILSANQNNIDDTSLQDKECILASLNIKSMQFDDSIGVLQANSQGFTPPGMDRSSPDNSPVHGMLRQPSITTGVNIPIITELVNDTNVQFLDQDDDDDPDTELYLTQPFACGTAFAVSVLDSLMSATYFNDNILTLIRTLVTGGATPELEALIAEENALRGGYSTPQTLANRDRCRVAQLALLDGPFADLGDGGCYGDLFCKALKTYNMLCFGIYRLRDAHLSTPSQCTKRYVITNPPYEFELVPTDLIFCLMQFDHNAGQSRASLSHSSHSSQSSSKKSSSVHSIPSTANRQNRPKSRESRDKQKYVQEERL

With `O=C(COc1cccc(Cl)c1)Nc1cc(Cl)ccc1-c1noc(=O)[nH]1` [Compound 8], the “maximal left-shift for the BK-activation curve (ΔVmax)” value (fitted to sigmoidal logistic equation) is given as -94 mV. In addition, for the setting “ramp -120 to +120 mV, ΔV at control conductance level of +100 mV, read-out: EC50 for the left-shift of the BKca-activation curve”, the EC50 amounted to 8.2 µM.
